Entries after “also recorded” stand apart in the source; their conditions may differ.

The subject of one series is lymphatic monolayer. The conditions noted are these: literature reference 17; cited from earlier work.
The subject of series [1] is LEC (lymphatic endothelium). Description: effect of 15-HETE on the cultured LEC. The series is classed as cell-based. From the text: To decipher the role of 15-Lox lipid derived mediators, we studied the effect of 15-HETE on the cultured LEC. We identified a direct effect of 15 HETE on the lymphatic endothelium. It promoted Tcells adhesion to the lymphatic monolayer (data not shown), had no effect on LEC proliferation (data not shown), but stimulated their migration (data not shown).

The target in the next series is T1, 15-LOX (Mus musculus, UniProt P39654).
T1 construct: from tissue; host or cells: living C57BL/6J mice (lymphedematous limb)
T1 sequence (P39654 1-663): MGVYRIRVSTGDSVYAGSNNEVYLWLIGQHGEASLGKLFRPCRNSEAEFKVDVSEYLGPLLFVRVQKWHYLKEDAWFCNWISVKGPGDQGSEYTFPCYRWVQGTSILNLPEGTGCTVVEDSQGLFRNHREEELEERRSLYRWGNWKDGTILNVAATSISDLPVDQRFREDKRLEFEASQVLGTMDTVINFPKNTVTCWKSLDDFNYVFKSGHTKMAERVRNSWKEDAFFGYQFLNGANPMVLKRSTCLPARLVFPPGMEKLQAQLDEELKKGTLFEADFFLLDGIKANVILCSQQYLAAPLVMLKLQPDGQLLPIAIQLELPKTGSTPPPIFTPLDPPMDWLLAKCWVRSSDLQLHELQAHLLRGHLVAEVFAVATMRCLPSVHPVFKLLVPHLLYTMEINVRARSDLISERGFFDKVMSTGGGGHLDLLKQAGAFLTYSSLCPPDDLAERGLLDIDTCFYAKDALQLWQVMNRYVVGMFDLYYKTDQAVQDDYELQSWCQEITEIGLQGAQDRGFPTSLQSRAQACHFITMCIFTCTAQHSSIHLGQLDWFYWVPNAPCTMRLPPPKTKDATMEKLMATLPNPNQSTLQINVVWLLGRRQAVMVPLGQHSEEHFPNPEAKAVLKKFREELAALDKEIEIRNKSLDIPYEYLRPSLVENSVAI
Description: 15-LOX inhibitor in mouse model of lymphedema. In kind it is in vivo. The conditions noted are these: in presence of 15-LOX inhibitor. As to the method:
Mice were housed in individually ventilated cages in a temperature and light regulated room in a SPF facility and received food and water ad libitum. Female C57BL/6J (6 weeks old) were obtained from Janvier (Le Genest Saint Isle, France). Mouse model of lymphedema was performed as previously described (Morfoisse ATVB 2008).
To understand the molecular mechanisms underlying the inflammatory process in lymphedema, we performed a time course analysis of the adipose tissue in a mouse model of lymphedema (not shown). […] In early stages of LD (2 weeks post surgery), no significant difference in lipid content was observed (data not shown). In contrast, in acquired lymphedema (8 weeks post-surgery), we found similar pattern as those observed in human tissue samples (data not shown). In particular, we observed a decrease in AA-derived lipid mediators generated by 15-LOX (15-HETE) whereas no difference was found in lipids generated by DHA metabolism (17-HDOHE) (data not shown). After eight weeks of LD, we observed that changes in pro-resolvin content was associated with a decrease in 15-LOX mRNA and protein expression (data not shown). Importantly, the downregulation of 15-LOX was also observed in the lymphatic endothelium (data not shown).
To evaluate the role of 15-LOX in LD, we used the PD146176 pharmacological inhibitor. […] As we previously shown that Tcell populations were recruited during LD development, we next performed flow cytometry analysis. We observed in the presence of 15-LOX inhibitor an increase in CD4+ Tcells during LD associated with a decrease in Treg recruitment (data not shown). This was confirmed by a decrease of Tregs (Foxp3 positive cells) immunodetection in lymphedematous tissues (data not shown).

`CCCCC/C=C\C[C@H](O)/C=C/C=C\C/C=C\CCCC(=O)O` [12-HETE]: the “effect on the lymphatic monolayer” value in the series on lymphatic monolayer is reported as “generates holes in the lymphatic monolayer”.
For the molecule `CCCCC[C@H](O)/C=C/C=C\C/C=C\C/C=C\CCCC(=O)O` [15-HETE, 15-hydroxyeicosatetraenoic acid], the “deleterious effect / damages on the lymphatic endothelium” value in series [1] (compared to 12-HETE) is “no deleterious effect; also recorded: did not cause lymphatic damages”. For the same molecule, the LEC proliferation result in series [1] (cultured LEC) is reported as “no effect”.
Consider `c1ccc2c(c1)SCc1c-2[nH]c2ccccc12` [PD146176], for which, at 15-LOX (flow cytometry), the “CD4+ Tcells during LD” value was “increase” and the Treg recruitment result was “decrease”. Besides, the “Tregs (Foxp3 positive cells) immunodetection in lymphedematous tissues” value at 15-LOX was “decrease”. For the same molecule, on 15-LOX (mouse model of lymphedema), the LD swelling entry is given as “increased”, the dermal backflow entry is listed as “strong dermal backflow” and the dermal fibrosis result is reported as “associated with dermal fibrosis”.

Source of the values: patent publication US20250064899A1, “USE OF THE 15-LIPOXYGENASE FOR THE TREATMENT OF LYMPHEDEMA” (INSERM (INSTITUT NATIONAL DE LA SANTÉ ET DE LA RECHERCHE …, priority 2022, published 2025).
